This passage reports IC50 results from ChEMBL document CHEMBL1150504, “Pharmacological evaluation of combined PGI2 agonists/thromboxane synthase inhibitors. I” (Bioorg Med Chem Lett, 1995).

For the first assay, the species on record is Homo sapiens. Put plainly: PGI-2 agonistic activity by measuring inhibition of 4 uM ADP-induced human platelet aggregation. It counts as functional.
In general, IC50 refers to the concentration needed to halve the response being measured. Low readings indicate inhibition by little substance, high ones a need for much substance. Molecule `C/C(CC1CCc2c(cccc2OCC(=O)O)C1)=N\OC(c1ccccc1)c1ccccc1` (stereo not drawn) showed an IC50 of 230 nM.
In the case of `C/C(CC1CCc2c(cccc2OCC(=O)O)C1)=N\OC(c1ccccc1)c1ccncc1` (stereo not drawn), the IC50 was found to be 480 nM.
`O=C(O)COc1cccc2c1CCC(Cn1cc(C(c3ccccc3)c3ccccc3)cn1)C2` (stereo not drawn) registered an IC50 of 130 nM.
In the case of `O=C(O)COc1cccc2c1CCCC2CCC(=O)NN(c1ccccc1)c1cccnc1` (stereo not drawn), the IC50 is 440 nM.
As for `C/C(CC1CCc2c(cccc2OCC(=O)O)C1)=N\OC(c1ccccc1)c1ccccn1` (stereo not drawn), the IC50 worked out at 570 nM.
`O=C(O)COc1cccc2c1CCCC2CCO/N=C(\c1ccccc1)c1cccnc1` (stereo not drawn) displayed an IC50 of 240 nM.
Consider `CCC/C(CC1CCc2c(cccc2OCC(=O)O)C1)=N\OC(c1ccccc1)c1cccnc1` (stereo not drawn), for which the IC50 worked out at 320 nM.
With `C/C(CC1CCc2c(cccc2OCC(=O)O)C1)=N\OC(c1ccccc1)c1cccnc1` (stereo not drawn), the IC50 amounted to 1400 nM.
For the molecule `CC#CCC(C)[C@H](O)/C=C/[C@@H]1[C@H]2C/C(=C/CCCC(=O)O)C[C@H]2C[C@H]1O` (stereo partly drawn) [ILOPROST], the IC50 was found to be 1.4 nM.
Still for that read-out and setting: the result for `O=C(O)COc1cccc2c1CCC(Cn1cc(C(c3ccccc3)c3cccnc3)cn1)C2` (stereo not drawn) reads 150 nM.

The next assay addresses T1, Thromboxane-A synthase (Homo sapiens, UniProt P24557).
T1 sequence (P24557 whole entry): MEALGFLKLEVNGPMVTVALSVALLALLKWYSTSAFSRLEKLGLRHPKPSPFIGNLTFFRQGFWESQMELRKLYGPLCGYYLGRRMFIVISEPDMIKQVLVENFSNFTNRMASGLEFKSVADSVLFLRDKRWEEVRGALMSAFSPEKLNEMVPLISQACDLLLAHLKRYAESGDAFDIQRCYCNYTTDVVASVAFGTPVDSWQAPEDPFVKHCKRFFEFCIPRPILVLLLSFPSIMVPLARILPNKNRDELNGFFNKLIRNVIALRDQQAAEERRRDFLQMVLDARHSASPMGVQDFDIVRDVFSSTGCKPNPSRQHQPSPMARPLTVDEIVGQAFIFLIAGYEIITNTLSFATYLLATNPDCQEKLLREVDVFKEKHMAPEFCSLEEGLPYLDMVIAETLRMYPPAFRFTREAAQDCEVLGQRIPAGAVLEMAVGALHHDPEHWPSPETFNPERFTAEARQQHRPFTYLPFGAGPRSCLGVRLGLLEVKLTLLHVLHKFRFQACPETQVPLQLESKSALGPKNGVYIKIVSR
Briefly: Inhibitory activity against Thromboxane A2 synthase in human platelet microsome.
Regarding `O=C(O)COc1cccc2c1CCCC2CCC(=O)NN(c1ccccc1)c1ccccc1` (stereo not drawn), the IC50 result was “Not Active”.
Turning to `O=C(O)COc1cccc2c1CCC(Cn1cc(C(c3ccccc3)c3ccccc3)cn1)C2` (stereo not drawn), the IC50 result is “Not Active”.
On to `CCC/C(CC1CCc2c(cccc2OCC(=O)O)C1)=N\OC(c1ccccc1)c1ccccc1` (stereo not drawn) [AP-227], for which the 50% inhibitory concentration (IC50) entry was “Not Active”.

The next assay deals with T1, Thromboxane-A synthase. Briefly: Inhibitory activity against Thromboxane A2 synthase in human platelet microsome; inactive.
`CC#CCC(C)[C@H](O)/C=C/[C@@H]1[C@H]2C/C(=C/CCCC(=O)O)C[C@H]2C[C@H]1O` (stereo partly drawn) [ILOPROST]: the IC50 result was “Not Active”.

For a further assay, the species on record is Homo sapiens. Briefly: PGI-2 agonistic activity by measuring inhibition of 4 uM ADP-induced human platelet aggregation; Inactive. The assay is classed as functional.
On to `O=C(O)/C=C/c1ccc(Cn2ccnc2)cc1` [OZAGREL], for which the IC50 entry is “Not Active”.
Take `C/C(=C\c1ccc(Cc2cccnc2)cc1)C(=O)[O-].[Na+]` [ONO-1581]: the IC50 entry is on record as “Not Active”.

The target of another assay is T1, Thromboxane-A synthase. Briefly: Inhibitory activity against Thromboxane A2 synthase in human platelet microsome; Inactive.
With `C/C(CC1CCc2c(cccc2OCC(=O)O)C1)=N\OC(c1ccccc1)c1ccccc1` (stereo not drawn), the IC50 entry is “Not Active”.
Consider `O=C(O)COc1cccc2c1CCCC2CCON=C(c1ccccc1)c1ccccc1` (stereo not drawn), for which the IC50 result is “Not Active”.
